# Reference: patent US5196421A, “Excitatory amino acid receptor antagonists in methods for the use thereof” (priority 1992, dated 1993)
# Tests used:
# [1] = molecular target: T1, Strychnine-Insensitive [^3 H]Glycine Binding Sites, washed membranes of rat brain cortex (Rattus norvegicus, UniProt P35439); experiment: biochemical; details: 1 h, read-out: [^3 H]-Glycine Binding % DSPL10 @ 10 μM, 10 μM test compound, 60 minutes on ice
# T1 construct: washed membranes of rat brain cortex; from tissue; host or cells: brain cortex membranes, male Sprague-Dawley rats (150-175 g)
# Procedure: (§1) Referring to Table IV, there are shown the results obtained in testing a representative number of these compounds. In Table IV, the activity of the compounds for EAA receptor binding is indicated. Compounds were evaluated for their ability to displace [^3 H]-CGS191755, [^3 H]-glycine, [^3 H]-AMPA and [^3 H]-kainate at a screening concentration of 10 μM.
# (§2) Binding assays, except for glycine binding, were performed in accordance with the methods described in Schoepp et al., J. Pharmacology and Exp. Therap., Vol. 255, No. 3, pp. 1301-1308 (1990). For all binding assays, male Sprague-Dawley rats (150-175 g) were used. Displacement of the specific binding of ^3 H]CGS19755 (10 nM) to Triton-X-treated synaptosomal membranes of rat forebrain was used to determine NMDA receptor affinity. Nonspecific binding was determined using 10 μM L-glutamate. Samples were incubated in an ice bath for 30 minutes, and bound ligand was separated from the free ligand by rapid filtration through Whatman GF/B glass fiber filters.
# The compounds were examined for their ability to displace [^3 H]-glycine from washed membranes of rat brain cortex according to the methods of Shinohara et al., "Ontogeny of Strychnine-Insensitive [^3 H]Glycine Binding Sites in Rat Forebrain", Neurosci. Lett. 105 (1990) 307-311. In each assay, […] [^3 H]-glycine and 25 μg tissue were incubated with test compounds (10 μM in a total volume of 0.5 ml for 60 minutes on ice; incubations were terminated by centrifugation. Non-specific binding was defined as that remaining in the presence of 10 μM D-serine.
# [2] = test system: AMPA receptor ([^3 H]AMPA binding, crude membranes of rat forebrain); experiment: [^3 H]-AMPA displacement, EAA receptor binding; details: 10 μM test compound, [^3 H]AMPA 5 nM, 100 mM KSCN
# Procedure: as §1, §2
# The binding of [^3 H]AMPA (5 nM) was conducted with crude membranes of rat forebrain in the presence of 100 mM KSCN, as described by Nielsen et al., "Studies on Receptor-Active Conformations of Excitatory Amino Acid Agonists and Antagonists," Eur. J. Med. Chem. Chim. Ther. 21:433-437 (1986). Nonspecific binding was determined with 10 μM nonlabeled AMPA.
# [3] = test system: kainate (KA) receptor ([^3 H]Kainate binding, washed synaptosomal membranes from the rat forebrain); experiment: [^3 H]-kainate displacement, EAA receptor binding; details: 10 μM test compound, [^3 H]Kainate 5 nM, pH 7.4, 30 min
# Procedure: as §1, §2
# [^3 H]Kainate binding was performed using washed synaptosomal membranes from the rat forebrain, prepared as described by Simon et al., "Binding of [^3 H]Kainic Acid, an Analogue of L-Glutamate, to Brain Membranes," J. Neurochem. 26:141-147 (1976). [^3 H]Kainate (5 nM) was added to 50 mM Tris-HCl buffer (pH 7.4 at 4°) containing 200-300 μg/ml of tissue protein. Samples were incubated for 30 minutes in an ice bath and then rapidly filtered using a Brandel cell harvester and Whatman GF/C filters. Filters were washed twice with 3 ml of cold buffer. Nonspecific binding was determined using 100 μM nonlabeled kainate.
SMILES,inhibition at 10 µM [1],AMPA % DSPL @ 10 μM [2],KA % DSPL @ 10 μM [3]
"O=c1[nH]c2c(Cl)cc(Cl)cc2c2ccnn12 [Compound 33, 7,9-dichloropyrazolo[1,5-c]quinazolin-5(6H)-one]",-3%,5.1%,7.4%
"Cc1cc2c3ccccc3[nH]c(=O)n2n1 [Compound 34, 2-methylpyrazolo[1,5-c]quinazolin-5(6H)-one]",13%,0.2%,0.9%
"O=c1[nH]c2cc(C(F)(F)F)ccc2c2ccnn12 [Compound 35, 8-trifluoromethylpyrazolo[1,5-c]quinazolin-5(6H)-one]",51%,54.8%,8.4%
"Clc1cc2ncc3nccn3c2cc1Cl [Compound 36, 7,8-dichloroimidazo[1,2-a]quinoxaline]",88%,53.3%,23.6%
"O=c1[nH]c2ccc(Cl)cc2c2nc3ccccc3n12 [Compound 38, chlorobenzimidazo[1,2-a]quinazolin-4(5H)-one]",3%,4.1%,-0.8%
